Measurements taken from patent US9663464B2, “Carbazole derivatives acting on 5-HT7 receptor” (KOREA INSTITUTE OF SCIENCE AND TECHNOLOGY, priority 2015, dated 2017).
Where a name gives a salt, the structure may show the parent alone.

What was measured:
5-HT6 = 5-HT6 (Homo sapiens, UniProt P50406); assay: 5-HT6 receptor inhibition/binding (Tables 2-3)
5-HT2C = target: T1, 5-HT2C (Homo sapiens, UniProt P28335); assay: 5-HT2C receptor inhibition/binding (Tables 1-3)
T1 sequence (P28335 33-458): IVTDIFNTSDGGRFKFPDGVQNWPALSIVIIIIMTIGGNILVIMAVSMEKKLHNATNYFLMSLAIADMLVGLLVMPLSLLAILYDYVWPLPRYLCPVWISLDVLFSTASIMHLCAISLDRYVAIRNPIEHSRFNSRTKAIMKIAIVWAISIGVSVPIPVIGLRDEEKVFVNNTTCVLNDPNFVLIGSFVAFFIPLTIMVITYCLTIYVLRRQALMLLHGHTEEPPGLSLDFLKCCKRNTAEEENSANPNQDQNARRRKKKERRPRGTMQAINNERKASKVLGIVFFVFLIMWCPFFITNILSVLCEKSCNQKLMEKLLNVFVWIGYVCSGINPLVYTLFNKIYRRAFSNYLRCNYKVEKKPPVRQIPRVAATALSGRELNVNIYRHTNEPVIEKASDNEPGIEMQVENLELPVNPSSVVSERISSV

[1] = target: T2, human gene recombinant 5-HT7 receptor expressed in CHO cells (Homo sapiens, UniProt P34969); assay: Binding affinity for the 5-HT7 serotonin receptor ([3H]LSD radioligand)
T2 construct: expressed in transfected cells; host or cells: CHO cells (membrane preparation)
T2 sequence (P34969 whole entry): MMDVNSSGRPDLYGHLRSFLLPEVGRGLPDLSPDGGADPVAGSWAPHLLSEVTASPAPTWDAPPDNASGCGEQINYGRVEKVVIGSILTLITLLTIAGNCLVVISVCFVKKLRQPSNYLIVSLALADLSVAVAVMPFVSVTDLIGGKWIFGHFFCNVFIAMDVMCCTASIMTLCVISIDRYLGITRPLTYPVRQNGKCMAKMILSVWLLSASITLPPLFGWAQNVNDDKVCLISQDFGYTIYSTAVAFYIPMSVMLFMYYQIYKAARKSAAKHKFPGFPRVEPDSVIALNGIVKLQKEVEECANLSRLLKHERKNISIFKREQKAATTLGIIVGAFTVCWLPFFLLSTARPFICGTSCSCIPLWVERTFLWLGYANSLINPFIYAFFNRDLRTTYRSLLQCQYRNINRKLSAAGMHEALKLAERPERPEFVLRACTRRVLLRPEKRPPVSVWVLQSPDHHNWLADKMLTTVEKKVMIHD
Description: In this example, the human gene recombinant 5-HT7 receptor expressed in CHO cells was used. 1 nM [^3H]LSD, 5-HT7 receptor membrane (15 μg/well), a test drug, 10 mM MgCl2, 50 mM Tris-HCl buffer (pH 7.4) containing 0.1 mM EDTA, etc. were added to a vessel until the final volume reached 0.25 ml. The test drug was used at various concentrations. The mixture was cultured at 25° C. for 90 min. The culture was rapidly filtered through a Whatman GF/C glass fiber filter, which had been previously wetted with 0.3% polyethyleneimine using a Brandel harvester, to quench the reaction. The reaction mixture was washed with cold 50 mM Tris-HCl buffer. The filter was covered with MeltiLex, sealed in a sample bag, and dried in an oven. Counting was performed using MicroBeta (Wallac) and nonspecific binding was measured in the presence of […]. The K value of the test drug was obtained from nonlinear regression analysis (GraphPad Prism Program, San Diego, USA) of isotherms obtained by repeatedly performing the experiment on the drug at 10-11 stage concentrations in two test tubes (each twice).
The % inhibition values of the inventive compounds having different Y structures at a concentration of 10 μM against the 5-HT7 serotonin receptor were measured. Further, the binding affinity (Ki) values of the inventive compounds having different Y structures at a concentration of 10 μM for the 5-HT7 serotonin receptor were measured.

5-HT1A = target: T3, 5-HT1A (Homo sapiens, UniProt P08908); assay: 5-HT1A receptor inhibition (Table 3); assay type: binding
T3 sequence (P08908 1-422): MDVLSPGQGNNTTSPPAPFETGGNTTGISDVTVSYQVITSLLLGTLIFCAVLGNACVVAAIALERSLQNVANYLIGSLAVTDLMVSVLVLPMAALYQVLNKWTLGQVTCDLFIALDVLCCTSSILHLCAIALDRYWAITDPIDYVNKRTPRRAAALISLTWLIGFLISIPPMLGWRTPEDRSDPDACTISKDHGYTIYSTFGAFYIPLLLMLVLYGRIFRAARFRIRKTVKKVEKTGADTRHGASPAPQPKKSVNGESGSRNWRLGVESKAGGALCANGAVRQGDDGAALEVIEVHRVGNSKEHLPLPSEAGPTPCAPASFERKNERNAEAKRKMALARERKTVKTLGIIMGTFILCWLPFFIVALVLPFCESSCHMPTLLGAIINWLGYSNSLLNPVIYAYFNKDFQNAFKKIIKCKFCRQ

Chain of 5-HT6 (P50406 whole entry, species assumed): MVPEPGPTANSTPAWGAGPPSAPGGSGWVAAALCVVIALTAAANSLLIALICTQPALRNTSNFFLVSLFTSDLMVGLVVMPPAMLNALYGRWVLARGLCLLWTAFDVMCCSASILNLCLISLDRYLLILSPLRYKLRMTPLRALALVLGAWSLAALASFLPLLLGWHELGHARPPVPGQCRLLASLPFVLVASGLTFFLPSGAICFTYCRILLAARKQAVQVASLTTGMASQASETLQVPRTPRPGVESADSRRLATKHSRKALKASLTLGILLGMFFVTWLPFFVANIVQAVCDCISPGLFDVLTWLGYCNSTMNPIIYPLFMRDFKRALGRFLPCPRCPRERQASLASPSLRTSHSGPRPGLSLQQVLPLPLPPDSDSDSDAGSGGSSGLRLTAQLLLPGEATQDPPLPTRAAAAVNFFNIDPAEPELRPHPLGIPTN

Row | SMILES | inhibition at 10 µM (5-HT6) | inhibition at 10 µM (5-HT2C) | Ki [1] | inhibition at 10 µM [1] | inhibition at 10 µM (5-HT1A) | Ki (5-HT6) | Ki (5-HT2C)
1 | CC(=O)N1CCN(CCCCCC(=O)n2c3ccccc3c3ccccc32)CC1 [Example 2.11, 6-(4-Acetylpiperazin-1-yl)-1-(9H-carbazol-9-yl)hexan-1-one hydrochloride] | 24.5% | 51.3% | 2340 nM | 72.1% | 51.8% |  | 
2 | CN1CCN(CCCCCC(=O)n2c3ccccc3c3ccccc32)CC1 [Example 2.12, 1-(9H-carbazol-9-yl)-6-(4-methylpiperazin-1-yl)hexan-1-one hydrochloride] | 77.6% | 82.5% | 1910 nM | 50% | 5.5% |  | 
3 | O=C(CCCCN1CCC(c2ccccc2)CC1)n1c2ccccc2c2ccccc21 [Example 2.25, 1-(9H-carbazol-9-yl)-5-(4-phenylpiperidin-1-yl)pentan-1-one hydrochloride] | 67% | 53.2% | 153 nM | 96% |  | 1500 nM | 905 nM
4 | O=C(CCCCN1CCC(Cc2ccccc2)CC1)n1c2ccccc2c2ccccc21 [Example 2.26, 5-(4-Benzylpiperidin-1-yl)-1-(9H-carbazol-9-yl)pentan-1-one hydrochloride] | 93.4% | 43.1% | 312 nM | 97.4% |  | 302 nM | 
5 | CN1CCN(CCCCC(=O)n2c3ccccc3c3ccccc32)CC1 [Example 2.28, 1-(9H-carbazol-9-yl)-5-(4-methylpiperazin-1-yl)pentan-1-one hydrochloride] | 78.4% |  |  | 40.4% | 15.9% |  | 
6 | O=C(CCCCN1CCN(c2ccccc2O)CC1)n1c2ccccc2c2ccccc21 [Example 2.30, 1-(9H-carbazol-9-yl)-5-(4-(2-hydroxyphenyl)piperazin-1-yl)pentan-1-one hydrochloride] | 62.6% |  | 86 nM | 98.7% | 102% |  | 
7 | O=C(CCCN1CCN(Cc2ccccc2)CC1)n1c2ccccc2c2ccccc21 [Example 2.32, 4-(4-Benzylpiperazin-1-yl)-1-(9H-carbazol-9-yl)butan-1-one hydrochloride] | 14.7% |  | 404 nM | 90.8% | 69.4% |  | 
8 | O=C(CCCN1CCN(c2ccccc2O)CC1)n1c2ccccc2c2ccccc21 [Example 2.33, 1-(9H-carbazol-9-yl)-4-(4-(2-hydroxyphenyl)piperazin-1-yl)butan-1-one] | 16.1% |  | 50 nM | 97% | 101% |  | 
9 | c1ccc(C2CCN(CCCCCCn3c4ccccc4c4ccccc43)CC2)cc1 [Example 2.43, 9-(6-(4-Phenylpiperidin-1-yl)hexyl)-9H-carbazole] | 94.9% |  | 212 nM | 89.9% |  | 169 nM | 
10 | c1ccc(CC2CCN(CCCCCCn3c4ccccc4c4ccccc43)CC2)cc1 [Example 2.44, 9-(6-(4-Benzylpiperidin-1-yl)hexyl)-9H-carbazole] | 97.8% |  | 232 nM | 86.8% |  | 142 nM | 
11 | CC(=O)N1CCN(CCCCCCn2c3ccccc3c3ccccc32)CC1 [Example 2.45, 1-(4-(6-(9H-carbazol-9-yl)hexyl)piperazin-1-yl)ethanone] | 35% |  | 1480 nM | 63.1% | 6.2% |  | 
12 | CN1CCN(CCCCCCn2c3ccccc3c3ccccc32)CC1 [Example 2.46, 9-(6-(4-Methylpiperazin-1-yl)hexyl)-9H-carbazole] | 82.2% |  |  | 49.4% | 19.3% |  | 
13 | c1ccc(CN2CCN(CCCCCCn3c4ccccc4c4ccccc43)CC2)cc1 [Example 2.47, 9-(6-(4-Benzylpiperazin-1-yl)hexyl)-9H-carbazole] | 77.5% |  | 602 nM | 86% | 62% |  | 
14 | Oc1ccccc1N1CCN(CCCCCCn2c3ccccc3c3ccccc32)CC1 [Example 2.48, 2-(4-(6-(9H-carbazol-9-yl)hexyl)piperazin-1-yl)phenol] | 96.9% |  | 89 nM | 90.5% | 105% |  | 
15 | COc1ccccc1N1CCN(CCCCCCn2c3ccccc3c3ccccc32)CC1 [Example 2.49, 9-(6-(4-(2-Methoxyphenyl)piperazin-1-yl)hexyl)-9H-carbazole] | 85.1% |  | 145 nM | 85.7% | 105% |  | 
16 | c1ccc(C2CCN(CCCCCn3c4ccccc4c4ccccc43)CC2)cc1 [Example 2.50, 9-(5-(4-Phenylpiperidin-1-yl)pentyl)-9H-carbazole] | 96.1% |  | 178 nM | 94.1% |  | 123 nM | 
17 | c1ccc(CN2CCN(CCCCCn3c4ccccc4c4ccccc43)CC2)cc1 [Example 2.51, 9-(5-(4-Benzylpiperazin-1-yl)pentyl)-9H-carbazole] | 65.1% |  | 233 nM | 86.8% | 74.9% |  | 
18 | Oc1ccccc1N1CCN(CCCCCn2c3ccccc3c3ccccc32)CC1 [Example 2.52, 2-(4-(5-(9H-carbazol-9-yl)pentyl)piperazin-1-yl)phenol] | 95.5% |  | 31 nM | 94.4% | 103% |  | 
19 | COc1ccccc1N1CCN(CCCCCn2c3ccccc3c3ccccc32)CC1 [Example 2.53, 9-(5-(4-(2-Methoxyphenyl)piperazin-1-yl)pentyl)-9H-carbazole] | 75.5% |  | 65 nM | 91.5% | 101% |  | 
20 | c1ccc(C2CCN(CCCCn3c4ccccc4c4ccccc43)CC2)cc1 [Example 2.54, 9-(4-(4-Phenylpiperidin-1-yl)butyl)-9H-carbazole] | 55.5% |  | 205 nM | 94.4% |  | 1430 nM | 
21 | COc1ccccc1N1CCN(CCCCn2c3ccccc3c3ccccc32)CC1 [Example 2.56, 9-(4-(4-(2-Methoxyphenyl)piperazin-1-yl)butyl)-9H-carbazole] | 56.3% |  | 64 nM | 92.5% | 104% |  | 
22 | c1ccc(C2CCN(CCCn3c4ccccc4c4ccccc43)CC2)cc1 [Example 2.57, 9-(3-(4-Phenylpiperidin-1-yl)propyl)-9H-carbazole] | 32.9% |  | 353 nM | 91.1% |  |  | 
23 | c1ccc(CN2CCN(CCCn3c4ccccc4c4ccccc43)CC2)cc1 [Example 2.58, 9-(3-(4-Benzylpiperazin-1-yl)propyl)-9H-carbazole] | 15.1% |  | 404 nM | 88.7% | 64.9% |  | 
24 | Oc1ccccc1N1CCN(CCCn2c3ccccc3c3ccccc32)CC1 [Example 2.59, 2-(4-(3-(9H-carbazol-9-yl)propyl)piperazin-1-yl)phenol] | 21.7% |  | 96 nM | 94.7% | 105% |  | 
25 | COc1ccccc1N1CCN(CCCn2c3ccccc3c3ccccc32)CC1 [Example 2.60, 9-(3-(4-(2-Methoxyphenyl)piperazin-1-yl)propyl)-9H-carbazole] | 12.2% |  | 155 nM | 90.7% | 103% |  | 
